Like-named read-outs stand apart in the source and are kept apart here.
How the values were obtained:
[1] = molecular target: T1, human V1a receptor (Homo sapiens, UniProt P37288); experiment: cell-based
T1 construct: expressed in transfected cells
Protocol: The V1a receptor is a G-protein coupled receptor, which upon activation triggers an increase in intracellular calcium mobilization. To evaluate compounds for their functional V1a receptor activity, HEK-293 cells were transfected with the human V1a receptor (V1a-HEK cells). HEK-293 cells were grown in DMEM (Dulbecco's modified Eagle Media) supplemented with 10% FBS and glutamine. HEK-cells were passed biweekly by trypsinization and seeded into 96 well plates at 33,000 cells per well. HEK-293 cells were transfected with human V1a receptor DNA using DMRIE-C reagent from Life Technologies (Carlsbad, Calif.). Stable lines were generated by selecting cells grown in culture media containing geneticin. After growing in Packard Clear-View black 96 well plates for 4-6 days, V1a-HEK cells were loaded with the calcium-sensitive fluorescence dye, FLUO-3 AM. Changes in intracellular calcium mobilization were measured by quantitating intracellular fluorescence using FLIPR (Fluorometric Imaging Plate Reader; Molecular Devices, Sunnyvale, Calif.). Test compounds were first added to the cells and the resulting changes in fluorescence measured to detect receptor agonistic activity. Five minutes later the cells were challenged with vasopressin to test compounds for their antagonistic activity. Receptor antagonists inhibit the ability of vasopressin to stimulate increases in intracellular fluorescence.

[2] = molecular target: human V2 receptor (Homo sapiens, UniProt P30518); experiment: V2 vasopressin receptor functional activity (cAMP accumulation); format: cell-based; set-up: expressed in transfected cells; host or cells: HEK-293
Chain of human V2 receptor (P30518 whole entry): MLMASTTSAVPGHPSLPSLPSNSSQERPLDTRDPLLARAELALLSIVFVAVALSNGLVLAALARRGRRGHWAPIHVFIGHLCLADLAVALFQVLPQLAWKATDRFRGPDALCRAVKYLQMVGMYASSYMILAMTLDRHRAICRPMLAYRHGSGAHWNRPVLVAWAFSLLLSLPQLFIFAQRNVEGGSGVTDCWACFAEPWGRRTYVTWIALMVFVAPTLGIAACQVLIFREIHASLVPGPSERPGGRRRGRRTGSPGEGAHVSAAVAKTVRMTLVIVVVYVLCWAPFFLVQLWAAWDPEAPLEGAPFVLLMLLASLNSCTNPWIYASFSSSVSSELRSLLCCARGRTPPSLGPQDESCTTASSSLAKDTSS
Protocol: The V2 receptor is also a G-protein coupled receptor which when activated induces an increase in cAMP turnover. Antagonism against the V2 receptor is determined by measuring cAMP accumulation in transfected HEK-293 cells expressing the human V-2 receptor (V2-HEK cells). Compounds are tested for their ability to block the stimulatory effects of vasopressin on cAMP accumulation. The cell content of cAMP is measured by radioimmunoassay using NEN flashplates.

[3] = V1a-HEK cells, inhibition of vasopressin-stimulated intracellular calcium mobilization, read-out: V1 (functional) IC50
[4] = V2-HEK cells, block of vasopressin-stimulated cAMP accumulation, read-out: V2 (functional) IC50
[5] = V1 (functional) IC50, V1a-HEK cells, inhibition of vasopressin-stimulated intracellular calcium mobilization

T1 sequence (P37288 whole entry): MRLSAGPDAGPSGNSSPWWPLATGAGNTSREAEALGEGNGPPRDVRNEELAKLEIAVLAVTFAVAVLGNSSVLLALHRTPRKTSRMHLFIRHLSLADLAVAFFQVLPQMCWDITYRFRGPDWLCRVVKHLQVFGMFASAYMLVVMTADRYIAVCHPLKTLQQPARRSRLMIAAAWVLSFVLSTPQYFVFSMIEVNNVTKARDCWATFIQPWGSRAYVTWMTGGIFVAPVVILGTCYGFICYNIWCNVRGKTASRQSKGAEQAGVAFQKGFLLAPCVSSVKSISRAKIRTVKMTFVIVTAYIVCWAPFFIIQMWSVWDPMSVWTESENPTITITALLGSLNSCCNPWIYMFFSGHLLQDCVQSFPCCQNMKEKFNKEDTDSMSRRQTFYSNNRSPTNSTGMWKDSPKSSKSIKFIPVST

| SMILES | IC50 [1, 3] [nM] | IC50 [2, 4] [nM] | IC50 [1, 5] [nM] | IC50 [2] [nM] | IC50 [1] [nM] |
| --- | --- | --- | --- | --- | --- |
| COc1cc(C(=O)N2CC[C@]3(C=C(c4nnn[nH]4)CC3)Cc3ccccc32)ccc1NC(=O)c1cc(F)ccc1Cl [Cpd 11, (R)-N-[3-methoxy-4-(2-chloro-5-fluoro-phenylcarbonyl)amino-phenylcarbonyl]-3-tetrazol-5-yl-spiro[cyclopent-2-ene-1,4′-benzo[b]azepane]] | 63 | 40 | – | – | – |
| COc1cc(C(=O)N2CC[C@]3(C=C(C4=NCCN4)CC3)Cc3ccccc32)ccc1NC(=O)c1cc(F)ccc1Cl [Cpd 12, (R)-N-[3-methoxy-4-(2-chloro-5-fluoro-phenylcarbonyl)amino-phenylcarbonyl]-3-(4,5-dihydro-1H-imidazol-2-yl)-spiro[cyclopent-2-ene-1,4′-benzo[b]azepane]] | 320 | 1100 | – | – | – |
| COc1cc(C(=O)N2CC[C@]3(C=C(C(=O)NS(N)(=O)=O)CC3)Cc3ccccc32)ccc1NC(=O)c1cc(F)ccc1Cl [Cpd 13, (R)-3-aminosulfonylaminocarbonyl-N-[3-methoxy-4-(2-chloro-5-fluoro-phenylcarbonyl)amino-phenylcarbonyl]-spiro[cyclopent-2-ene-1,4′-benzo[b]azepane]] | 27 | 11 | – | – | – |
| COc1cc(C(=O)N2CC[C@]3(C=C(c4ncc[nH]4)CC3)Cc3ccccc32)ccc1NC(=O)c1cc(F)ccc1Cl [Cpd 14, (R)-N-[3-methoxy-4-(2-chloro-5-fluoro-phenylcarbonyl)amino-phenylcarbonyl]-3-(1H-imidazol-2-yl)-spiro[cyclopent-2-ene-1,4′-benzo[b]azepane]] | 95 | 730 | – | – | – |
| COc1cc(C(=O)N2CC[C@@]3(CCC(=NO)C3)Cc3ccccc32)ccc1NC(=O)c1cc(F)ccc1Cl [Cpd 15, (R)-N-[3-methoxy-4-(2-chloro-5-fluoro-phenylcarbonyl)amino-phenylcarbonyl]-3-hydroxyimino-spiro[cyclopentane-1,4′-benzo[b]azepane]] | – | – | 90 | 400 | – |
| COc1cc(C(=O)N2CC[C@@]3(CCC(=CC(=O)O)C3)Cc3ccccc32)ccc1NC(=O)c1cc(F)ccc1Cl [Cpd 16, (R)-N-[3-methoxy-4-(2-chloro-5-fluoro-phenylcarbonyl)amino-phenylcarbonyl]-3-carboxymethylene-spiro[cyclopentane-1,4′-benzo[b]azepane]] | – | 74 | – | – | 30 |
| COc1cc(C(=O)N2CC[C@@]3(CCC(N)C3)Cc3ccccc32)ccc1NC(=O)c1cc(F)ccc1Cl (stereo partly drawn) [Cpd 17, (1R)-3-amino-N-[3-methoxy-4-(2-chloro-5-fluoro-phenylcarbonyl)amino-phenylcarbonyl]-spiro[cyclopentane-1,4′-benzo[b]azepane]] | – | 1100 | – | – | 730 |
| COc1cc(C(=O)N2CC[C@@]3(CCC(N4CCOCC4)C3)Cc3ccccc32)ccc1NC(=O)c1cc(F)ccc1Cl (stereo partly drawn) [Cpd 18, (1R)—N-[3-methoxy-4-(2-chloro-5-fluoro-phenylcarbonyl)amino-phenylcarbonyl]-3-morpholin-4-yl-spiro[cyclopentane-1,4′-benzo[b]azepane]] | – | 1200 | – | – | 240 |
| COc1cc(C(=O)N2CC[C@@]3(CCC(NS(N)(=O)=O)C3)Cc3ccccc32)ccc1NC(=O)c1cc(F)ccc1Cl (stereo partly drawn) [Cpd 19, (1R)-3-aminosulfonylamino-N-[3-methoxy-4-(2-chloro-5-fluoro-phenylcarbonyl)amino-phenylcarbonyl]-spiro[cyclopentane-1,4′-benzo[b]azepane]] | – | 120 | 100 | – | – |
| COc1cc(C(=O)N2CC[C@@]3(CCC(N(C)C)C3)Cc3ccccc32)ccc1NC(=O)c1cc(F)ccc1Cl (stereo partly drawn) [Cpd 20, (1R)—N-[3-methoxy-4-(2-chloro-5-fluoro-phenylcarbonyl)amino-phenylcarbonyl]-3-dimethylamino-spiro[cyclopentane-1,4′-benzo[b]azepane]] | 490 | – | – | – | – |
| COc1cc(C(=O)N2CC[C@@]3(CCC(NCCN(C)C)C3)Cc3ccccc32)ccc1NC(=O)c1cc(F)ccc1Cl (stereo partly drawn) [Cpd 21, (1R)—N-[3-methoxy-4-(2-chloro-5-fluoro-phenylcarbonyl)amino-phenylcarbonyl]-3-(2-dimethylamino-ethyl)amino-spiro[cyclopentane-1,4′-benzo[b]azepane]] | – | 1100 | – | – | 170 |
| CON=C1CC[C@@]2(CCN(C(=O)c3ccc(NC(=O)c4cc(F)ccc4Cl)c(OC)c3)c3ccccc3C2)C1 [Cpd 22, (R)—N-[3-methoxy-4-(2-chloro-5-fluoro-phenylcarbonyl)amino-phenylcarbonyl]-3-methoxyimino-spiro[cyclopentane-1,4′-benzo[b]azepane]] | – | 740 | 290 | – | – |
| COc1cc(C(=O)N2CC[C@@]3(CCC(N4CCN(C)CC4)C3)Cc3ccccc32)ccc1NC(=O)c1cc(F)ccc1Cl (stereo partly drawn) [Cpd 23, (1R)—N-[3-methoxy-4-(2-chloro-5-fluoro-phenylcarbonyl)amino-phenylcarbonyl]-3-(4-methyl-piperazin-1-yl)-spiro[cyclopentane-1,4′-benzo[b]azepane]] | 710 | – | – | – | – |
| COc1cc(C(=O)N2CC[C@@]3(CCC(=NOCC(=O)O)C3)Cc3ccccc32)ccc1NC(=O)c1cc(F)ccc1Cl [Cpd 24, (R)—N-[3-methoxy-4-(2-chloro-5-fluoro-phenylcarbonyl)amino-phenylcarbonyl]-3-carboxymethoxyimino-spiro[cyclopentane-1,4′-benzo[b]azepane]] | – | 220 | – | – | 100 |
| COc1cc(C(=O)N2CC[C@@]3(CCC(N4CCCC4)C3)Cc3ccccc32)ccc1NC(=O)c1cc(F)ccc1Cl (stereo partly drawn) [Cpd 25, (1R)-N-[3-methoxy-4-(2-chloro-5-fluoro-phenylcarbonyl)amino-phenylcarbonyl]-3-(1H-pyrrolidin-1-yl)-spiro[cyclopentane-1,4′-benzo[b]azepane]] | – | 1000 | – | – | 810 |
| COC(=O)C=C1CC[C@@]2(CCN(C(=O)c3ccc(NC(=O)c4cc(F)ccc4Cl)c(OC)c3)c3ccccc3C2)C1 [Cpd 26, (R)—N-[3-methoxy-4-(2-chloro-5-fluoro-phenylcarbonyl)amino-phenylcarbonyl]-3-methoxycarbonylmethylene-spiro[cyclopentane-1,4′-benzo[b]azepane]] | – | 70 | 4000 | – | – |
| COc1cc(C(=O)N2CC[C@@]3(CCC(=NN(C)C)C3)Cc3ccccc32)ccc1NC(=O)c1cc(F)ccc1Cl [Cpd 27, (R)—N-[3-methoxy-4-(2-chloro-5-fluoro-phenylcarbonyl)amino-phenylcarbonyl]-3-dimethylaminoimino-spiro[cyclopentane-1,4′-benzo[b]azepane]] | – | 390 | 130 | – | – |
| COc1cc(C(=O)N2CC[C@@]3(CCC(=CC(=O)NCCN4CCOCC4)C3)Cc3ccccc32)ccc1NC(=O)c1cc(F)ccc1Cl [Cpd 28, (R)—N-[3-methoxy-4-(2-chloro-5-fluoro-phenylcarbonyl)amino-phenylcarbonyl]-3-(2-morpholin-4-yl-ethyl)aminocarbonylmethylene-spiro[cyclopentane-1,4′-benzo[b]azepane]] | – | 200 | – | – | 220 |
| COc1cc(C(=O)N2CC[C@@]3(CCC(=CC(=O)NCCO)C3)Cc3ccccc32)ccc1NC(=O)c1cc(F)ccc1Cl [Cpd 29, (R)—N-[3-methoxy-4-(2-chloro-5-fluoro-phenylcarbonyl)amino-phenylcarbonyl]-3-(2-hydroxy-ethyl)aminocarbonylmethylene-spiro[cyclopentane-1,4′-benzo[b]azepane]] | – | 90 | 170 | – | – |

From patent US20080306044A1, “SPIROBENZOAZEPANES AS VASOPRESSIN ANTAGONISTS” (priority 2007, published 2008)
